Assay results: US8637681B2, “Pyrrolyl substituted dihydroindol-2-one derivatives, preparation methods and uses thereof” (Qilu Pharmaceutical Co., Ltd., priority 2010, dated 2014)

Legend:
[1] = test system: arterial ring angiogenesis in rats; assay: Inhibitory actions on arterial ring angiogenesis in rats; assay type: cell-based; conditions: Rattus norvegicus, area covered by micrangiums vs control well, read-out: Inhibitory rate (%); for inhibition at 0.2 µg/mL: 0.2 μg/ml; for inhibition at 1 µg/mL: 1 μg/ml; for inhibition at 5 µg/mL: 5 μg/ml
Description: This experiment was conducted by referring to the method described by R. F. Nicosia et al (Nicosia, R. F., et al. Am J Pathol., 1997, 151, 1379-1386). Rats were executed by cervical dislocation. The thoracic aorta was carefully separated, and placed in a container with physiological saline. The excess tissues were carefully cut off. The blood vessels were cut with a pair of ophthalmic scissors to form 1 mm thick vascular ring slices. To a pre-cooled 96-well cell culture plate, one separated vascular ring was placed in the center of each well. 70 μl of pre-molten Matrigel was carefully added to cover the vascular ring, which was incubated at 37° C. for 1 h so as to solidify it. […] The sample was placed in incubator for conventional culture, and each compound was tested at least in two repeated wells, and each test was repeated twice. […] The fresh culture medium was replaced every 3 days, and the drug was changed at the same time. The survival status of vascular rings was observed under microscope, and pictures were taken at the same time. Image Pro Plus software was used to calculate the area covered by micrangiums. The average inhibition rate was calculated by using the formula: inhibition rate (%)=(area of control well−area of drug well)/area of control well×100%.

[2] = Cytotoxicity test (SRB), A549; assay type: cell-based; conditions: human, A549 non-small cell lung cancer cells
Description: (§1) Cytotoxicity of the compounds of the present invention was tested with human non-small cell lung cancer cells A549, human cervical cancer Hela cells, human skin cancer cells A431. The test was performed by referring to the method described by Rusnak et al (Rusnak D. W., et al., Cell Prolif., 2007, 40, 580-94).
(§2) In Dulbecco's Modified Eagle Medium (DMEM) comprising 10% fetal bovine serum, 2 mM glutamine and non-essential amino acids, cells were cultured at 37° C. in 5% CO2 cell incubator. Trypsin/ethylenediamine tetraacetic acid (EDTA) were used to harvest cells in cell culture bottle. The cells were added to a 96-well cell culture plate, 4000/well (0.1 ml medium), adhering wall overnight, 0.1 ml of the diluted solution of the compounds to be tested was added, the final concentration of DMSO was 0.25%. The cell culture plate was incubated at 37° C., 5% CO2 conditions for 72 h. The change of cellular morphology was observed under microscope, and then 50 μl of 50% (mass/volume) trichloroacetic acid (TCA) was added to each well to fix cells. The final concentration of TCA was 10%. It stood for 5 min, than was placed in 4° C. refrigerator for 1 h, the wells of the culture plate were washed with deionized water for 5 times to remove TCA, drained, dried in air until no wet trace was observed. 100 μl of 0.4% (mass/volume) SRB was added to each well, stood at room temperature for 10 min. The liquid in each well was discarded, and then the wells were washed with 1% acetic acid for 5 times, dried in air, extracted with 150 μl of 10 mM Tris base (trihydroxymethylaminomethane, pH 10.5). The absorption at a wavelength of 540 nm was measured. The IC50 (μM) of the compound was calculated using Logit method.

[3] = Cytotoxicity test (SRB), Hela; assay type: cell-based; conditions: human, Hela cervical cancer cells
Description: Cytotoxicity of the compounds of the present invention was tested with human non-small cell lung cancer cells A549, human cervical cancer Hela cells, human skin cancer cells A431. The test was performed by referring to the method described by Rusnak et al (Rusnak D. W., et al., Cell Prolif., 2007, 40, 580-94). […] Trypsin/ethylenediamine tetraacetic acid (EDTA) were used to harvest cells in cell culture bottle. The cells were added to a 96-well cell culture plate, 4000/well (0.1 ml medium), adhering wall overnight, 0.1 ml of the diluted solution of the compounds to be tested was added, the final concentration of DMSO was 0.25%. The cell culture plate was incubated at 37° C., 5% CO2 conditions for 72 h. […] The absorption at a wavelength of 540 nm was measured. The IC50 (μM) of the compound was calculated using Logit method.

[4] = Cytotoxicity test (SRB), A431; assay type: cell-based; conditions: human, A431 skin cancer cells
Description: as §1, §2

[5] = test system: human colon cancer HT 29 transplanted tumor; assay: Nude mice transplanted tumor test; assay type: in vivo, female Balb/cA nude mice; design: key to d21 Vave ± SD (average tumor volume): tumor volume TV = ½×a×b² (a, b = major, minor diameter), in mm³; conditions: for Dead animal number / inhibition in vivo at 80 mg/kg / d21 Wave ± SD (average bodyweight of nude mice) / d21 Vave ± SD (average tumor volume) / d21 RTV ± SD (relative tumor volume): 80 mg/kg intragastrically each day for 20 days; for Dead animal number: dead/total animals; for inhibition in vivo at 80 mg/kg: Mus musculus, HT-29, po, 504 h, (1−T/C)×100%, read-out: Tumor inhibition rate d21 (%); for inhibition in vivo at 80 mg/kg / d21 Wave ± SD (average bodyweight of nude mice) / d21 Vave ± SD (average tumor volume) / d21 RTV ± SD (relative tumor volume): d21; for d0 Wave ± SD (average bodyweight of nude mice): d0, at grouping before administration (baseline); for d21 Vave ± SD (average tumor volume): HT 29 in nude mice; for d21 RTV ± SD (relative tumor volume): RTV=Vt/V0; for Activity of inhibiting HT-29 transplanted tumor in vivo (in words): 80 mg/kg, compared with positive control Sunitinib
Description: The nude mice transplanted tumor test used female Balb/cA nude mice, and tumor strains were human colon cancer HT 29 strains.
Under sterile condition, eugonic tumor tissues stage were cut into pieces of about 1.5 mm^3, and inoculated at right axillary fossa of the nude mice. The transplanted tumor diameter was measured by vernier caliper, and the animals were randomly grouped after the tumors grew to about 120 mm^3. The positive control group and the compounds group in a dosage of 80 mg/kg were administered intragastrically each day for consecutive 20 days. The negative control group was given equivalent amount of injection water containing 0.1% Tween 80. Tumor diameters and the bodyweight of mice were measured 2-3 times every week. The evaluation indexes observed in the test include relative tumor proliferation rate, bodyweight and general states. The formulation for calculating tumor volume (TV) is: TV=½×a×b^2, wherein a, b represent major diameter and minor diameter of tumor; Relative tumor volume (RTV) was calculated according the results of measurement by the following formula: RTV=Vt/V0, wherein V0 is tumor volume measured when dividing groups for administration, and Vt is tumor volume measured after each administration.

Structure (SMILES) | inhibition at 0.2 µg/mL [1] [%] | inhibition at 1 µg/mL [1] [%] | inhibition at 5 µg/mL [1] [%] | IC50 at 72 h [2] [µM] | IC50 at 72 h [3] [µM] | IC50 at 72 h [4] [µM] | Dead animal number [5] | inhibition in vivo at 80 mg/kg [5] [%] | d0 Wave ± SD (average bodyweight of nude mice) [5] | d21 Wave ± SD (average bodyweight of nude mice) [5] | d21 Vave ± SD (average tumor volume) ([5]; in mm³ (unit assumed)) | d21 RTV ± SD (relative tumor volume) [5] | Activity of inhibiting HT-29 transplanted tumor in vivo (in words) [5] | d21 Vave ± SD (average tumor volume) [5]
CCN(CC)CCC(=O)Nc1c(C)[nH]c(/C=C2\C(=O)Nc3ccc(NS(C)(=O)=O)cc32)c1C [Compound 8, N-{5-[5-methylsulfonylamino-2-oxo-1,2-dihydro-indol-(3Z)-ylidenemethyl]-2,4-dimethyl-1H-pyrrol-3-yl}-3-(N,N-diethylamino)propionamide] | 94 | 100 | 100 | > 30 | > 30 | > 30 | 0/6 | 78.9 | 19.2 ± 0.32 | 17.8 ± 0.65 | 186.0 ± 53.1 | 1.52 ± 0.56 | – | –
CCN1CCN(CCC(=O)Nc2c(C)[nH]c(/C=C3\C(=O)Nc4ccc(F)cc43)c2C)CC1 [Compound 10, N-{5-[5-fluoro-2-oxo-1,2-dihydro-indol-(3Z)-ylidenemethyl]-2,4-dimethyl-1H-pyrrol-3-yl}-3-(4-ethylpiperazin-1-yl)propionamide] | 98 | 100 | 100 | > 30 | > 30 | > 30 | 0/6 | 86.4 | 18.7 ± 1.10 | 18.9 ± 0.97 | 112.8 ± 36.4 | 0.98 ± 0.34 | inhibitory activity comparable to the positive control Sunitinib | –
Cc1[nH]c(/C=C2\C(=O)Nc3ccc(F)cc32)c(C)c1NC(=O)CCN1CCN(C)CC1 [Compound 11, N-{5-[5-fluoro-2-oxo-1,2-dihydro-indol-(3Z)-ylidenemethyl]-2,4-dimethyl-1H-pyrrol-3-yl}-3-(4-methylpiperazin-1-yl)propionamide] | 99 | 100 | 100 | > 30 | > 30 | > 30 | 0/6 | 88.5 | 18.5 ± 0.55 | 20.5 ± 0.49 | 96.7 ± 35.4 | 0.83 ± 0.52 | inhibitory activity comparable to the positive control Sunitinib | –
Cc1[nH]c(/C=C2\C(=O)Nc3ccc(F)cc32)c(C)c1NC(=O)CN1CCCCC1 [Compound 16, N-{5-[5-fluoro-2-oxo-1,2-dihydro-indol-(3Z)-ylidenemethyl]-2,4-dimethyl-1H-pyrrol-3-yl}-2-(piperidin-1-yl)acetamide] | 91 | 100 | 100 | > 30 | > 30 | 6.25 | 0/6 | 68.7 | 19.5 ± 0.46 | 18.5 ± 0.59 | 268.4 ± 33.8 | 2.25 ± 0.37 | – | –
Cc1[nH]c(/C=C2\C(=O)Nc3ccc(F)cc32)c(C)c1NC(=O)CN1CCCC1 [Compound 17, N-{5-[5-fluoro-2-oxo-1,2-dihydro-indol-(3Z)-ylidenemethyl]-2,4-dimethyl-1H-pyrrol-3-yl}-2-(tetrahydropyrrol-1-yl)acetamide] | 89 | 100 | 100 | > 30 | > 30 | > 30 | 0/6 | 63.5 | 18.9 ± 0.58 | 19.2 ± 0.82 | – | 2.63 ± 0.53 | – | 324.5 ± 39.4
CCN1CCN(CC(=O)Nc2c(C)[nH]c(/C=C3\C(=O)Nc4ccc(F)cc43)c2C)CC1 [Compound 18, N-{5-[5-fluoro-2-oxo-1,2-dihydro-indol-(3Z)-ylidenemethyl]-2,4-dimethyl-1H-pyrrol-3-yl}-2-(4-ethylpiperazin-1-yl)acetamide] | 99 | 100 | 100 | > 30 | 4.15 | > 30 | 0/6 | 90.1 | 19.1 ± 0.48 | 18.9 ± 0.69 | 86.2 ± 45.3 | 0.73 ± 0.45 | – | –
CCN(CC)CC(=O)Nc1c(C)[nH]c(/C=C2\C(=O)Nc3ccc(Cl)cc32)c1C [Compound 21, N-{5-[5-chloro-2-oxo-1,2-dihydro-indol-(3Z)-ylidenemethyl]-2,4-dimethyl-1H-pyrrol-3-yl}-2-(N,N-diethylamino)acetamide] | 95 | 100 | 100 | > 30 | > 30 | > 30 | 0/6 | 89 | 18.9 ± 0.47 | 19.3 ± 0.76 | 94.3 ± 37.2 | 0.79 ± 0.63 | inhibitory activity comparable to the positive control Sunitinib | –
